The values below are quoted from earlier work in US20030232367A1, “Differentially expressed genes involved in angiogenesis, the proteins encoded thereby, and methods of using the same” (priority 2002, published 2003).

This data set relates to vascular endothelial cell proliferation. Conditions: endothelial vs tumor cell proliferation (Ingber et al. 1990).

Turning to `CO[C@@H]1[C@H](OC(=O)NC(=O)CCl)CC[C@]2(CO2)[C@H]1[C@@]1(C)O[C@@H]1CC=C(C)C` [AGM-1470], the “half-maximal inhibition of vascular endothelial cell proliferation at lower concentration than tumor cell proliferation” value is 4 logs.
